Test results from ChEMBL document CHEMBL3421539, “A novel cell-permeable, selective, and noncompetitive inhibitor of KAT3 histone acetyltransferases from a combined molecular pruning/classical isosterism approach” (J Med Chem, 2015).
Activity calls are given as the source filed them. The rule behind the calls is not given here.

Legend:
[1] = Stability of the compound in aqueous medium assessed as hydrolysis after 10 mins to 24 hrs by HPLC analysis; format: physicochemical; settings: buffer
[2] = Stability of the compound in organic solvent assessed as hydrolysis after 10 mins to 24 hrs by HPLC analysis; format: physicochemical
[3] = Apparent permeability of the compound at RT after 24 hrs by PAMPA; format: physicochemical
[4] = target: T1, Histone acetyltransferase KAT2B (Homo sapiens, UniProt Q92831); experiment: Inhibition of PCAF (unknown origin) using histone H3/[acetyl-3H]-acetyl coenzyme A as substrate at 10 uM
Target sequence in this assay (Q92831 whole entry, looked up): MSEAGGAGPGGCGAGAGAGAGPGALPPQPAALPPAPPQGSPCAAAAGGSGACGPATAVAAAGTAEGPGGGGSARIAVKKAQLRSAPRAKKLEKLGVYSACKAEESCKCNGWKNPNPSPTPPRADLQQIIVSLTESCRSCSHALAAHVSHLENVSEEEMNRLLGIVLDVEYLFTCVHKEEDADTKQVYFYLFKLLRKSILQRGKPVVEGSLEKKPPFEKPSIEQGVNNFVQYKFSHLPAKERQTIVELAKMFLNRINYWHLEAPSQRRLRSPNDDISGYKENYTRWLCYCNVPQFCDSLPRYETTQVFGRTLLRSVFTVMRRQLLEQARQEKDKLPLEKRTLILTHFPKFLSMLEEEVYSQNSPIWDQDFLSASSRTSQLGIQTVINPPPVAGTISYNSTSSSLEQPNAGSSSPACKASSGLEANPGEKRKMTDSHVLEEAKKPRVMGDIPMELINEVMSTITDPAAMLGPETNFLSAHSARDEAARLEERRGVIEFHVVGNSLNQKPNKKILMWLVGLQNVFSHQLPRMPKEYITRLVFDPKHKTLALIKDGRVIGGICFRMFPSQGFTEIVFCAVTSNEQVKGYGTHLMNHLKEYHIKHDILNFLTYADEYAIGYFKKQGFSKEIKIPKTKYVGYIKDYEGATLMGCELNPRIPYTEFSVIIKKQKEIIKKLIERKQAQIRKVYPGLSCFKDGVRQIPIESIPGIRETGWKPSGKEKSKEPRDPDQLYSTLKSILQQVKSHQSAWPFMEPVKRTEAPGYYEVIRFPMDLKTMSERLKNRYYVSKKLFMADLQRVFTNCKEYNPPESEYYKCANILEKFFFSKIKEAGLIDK

[5] = target: T1, Histone acetyltransferase KAT2B; experiment: Inhibition of PCAF (unknown origin) using histone H3/[acetyl-3H]-acetyl coenzyme A as substrate at 100 uM
Target sequence in this assay (Q92831 whole entry, looked up): as above

[6] = target: T1, Histone acetyltransferase KAT2B; experiment: Inhibition of PCAF (unknown origin) using histone H3/[acetyl-3H]-acetyl coenzyme A as substrate
Target sequence in this assay (Q92831 whole entry): as the sequence (Q92831 whole entry, looked up) above

[7] = target: T2, Histone acetyltransferase p300 (Homo sapiens, UniProt Q09472); experiment: Inhibition of P300 (unknown origin) using histone H3/[acetyl-3H]-acetyl coenzyme A as substrate at 100 uM
T2 sequence (Q09472 whole entry): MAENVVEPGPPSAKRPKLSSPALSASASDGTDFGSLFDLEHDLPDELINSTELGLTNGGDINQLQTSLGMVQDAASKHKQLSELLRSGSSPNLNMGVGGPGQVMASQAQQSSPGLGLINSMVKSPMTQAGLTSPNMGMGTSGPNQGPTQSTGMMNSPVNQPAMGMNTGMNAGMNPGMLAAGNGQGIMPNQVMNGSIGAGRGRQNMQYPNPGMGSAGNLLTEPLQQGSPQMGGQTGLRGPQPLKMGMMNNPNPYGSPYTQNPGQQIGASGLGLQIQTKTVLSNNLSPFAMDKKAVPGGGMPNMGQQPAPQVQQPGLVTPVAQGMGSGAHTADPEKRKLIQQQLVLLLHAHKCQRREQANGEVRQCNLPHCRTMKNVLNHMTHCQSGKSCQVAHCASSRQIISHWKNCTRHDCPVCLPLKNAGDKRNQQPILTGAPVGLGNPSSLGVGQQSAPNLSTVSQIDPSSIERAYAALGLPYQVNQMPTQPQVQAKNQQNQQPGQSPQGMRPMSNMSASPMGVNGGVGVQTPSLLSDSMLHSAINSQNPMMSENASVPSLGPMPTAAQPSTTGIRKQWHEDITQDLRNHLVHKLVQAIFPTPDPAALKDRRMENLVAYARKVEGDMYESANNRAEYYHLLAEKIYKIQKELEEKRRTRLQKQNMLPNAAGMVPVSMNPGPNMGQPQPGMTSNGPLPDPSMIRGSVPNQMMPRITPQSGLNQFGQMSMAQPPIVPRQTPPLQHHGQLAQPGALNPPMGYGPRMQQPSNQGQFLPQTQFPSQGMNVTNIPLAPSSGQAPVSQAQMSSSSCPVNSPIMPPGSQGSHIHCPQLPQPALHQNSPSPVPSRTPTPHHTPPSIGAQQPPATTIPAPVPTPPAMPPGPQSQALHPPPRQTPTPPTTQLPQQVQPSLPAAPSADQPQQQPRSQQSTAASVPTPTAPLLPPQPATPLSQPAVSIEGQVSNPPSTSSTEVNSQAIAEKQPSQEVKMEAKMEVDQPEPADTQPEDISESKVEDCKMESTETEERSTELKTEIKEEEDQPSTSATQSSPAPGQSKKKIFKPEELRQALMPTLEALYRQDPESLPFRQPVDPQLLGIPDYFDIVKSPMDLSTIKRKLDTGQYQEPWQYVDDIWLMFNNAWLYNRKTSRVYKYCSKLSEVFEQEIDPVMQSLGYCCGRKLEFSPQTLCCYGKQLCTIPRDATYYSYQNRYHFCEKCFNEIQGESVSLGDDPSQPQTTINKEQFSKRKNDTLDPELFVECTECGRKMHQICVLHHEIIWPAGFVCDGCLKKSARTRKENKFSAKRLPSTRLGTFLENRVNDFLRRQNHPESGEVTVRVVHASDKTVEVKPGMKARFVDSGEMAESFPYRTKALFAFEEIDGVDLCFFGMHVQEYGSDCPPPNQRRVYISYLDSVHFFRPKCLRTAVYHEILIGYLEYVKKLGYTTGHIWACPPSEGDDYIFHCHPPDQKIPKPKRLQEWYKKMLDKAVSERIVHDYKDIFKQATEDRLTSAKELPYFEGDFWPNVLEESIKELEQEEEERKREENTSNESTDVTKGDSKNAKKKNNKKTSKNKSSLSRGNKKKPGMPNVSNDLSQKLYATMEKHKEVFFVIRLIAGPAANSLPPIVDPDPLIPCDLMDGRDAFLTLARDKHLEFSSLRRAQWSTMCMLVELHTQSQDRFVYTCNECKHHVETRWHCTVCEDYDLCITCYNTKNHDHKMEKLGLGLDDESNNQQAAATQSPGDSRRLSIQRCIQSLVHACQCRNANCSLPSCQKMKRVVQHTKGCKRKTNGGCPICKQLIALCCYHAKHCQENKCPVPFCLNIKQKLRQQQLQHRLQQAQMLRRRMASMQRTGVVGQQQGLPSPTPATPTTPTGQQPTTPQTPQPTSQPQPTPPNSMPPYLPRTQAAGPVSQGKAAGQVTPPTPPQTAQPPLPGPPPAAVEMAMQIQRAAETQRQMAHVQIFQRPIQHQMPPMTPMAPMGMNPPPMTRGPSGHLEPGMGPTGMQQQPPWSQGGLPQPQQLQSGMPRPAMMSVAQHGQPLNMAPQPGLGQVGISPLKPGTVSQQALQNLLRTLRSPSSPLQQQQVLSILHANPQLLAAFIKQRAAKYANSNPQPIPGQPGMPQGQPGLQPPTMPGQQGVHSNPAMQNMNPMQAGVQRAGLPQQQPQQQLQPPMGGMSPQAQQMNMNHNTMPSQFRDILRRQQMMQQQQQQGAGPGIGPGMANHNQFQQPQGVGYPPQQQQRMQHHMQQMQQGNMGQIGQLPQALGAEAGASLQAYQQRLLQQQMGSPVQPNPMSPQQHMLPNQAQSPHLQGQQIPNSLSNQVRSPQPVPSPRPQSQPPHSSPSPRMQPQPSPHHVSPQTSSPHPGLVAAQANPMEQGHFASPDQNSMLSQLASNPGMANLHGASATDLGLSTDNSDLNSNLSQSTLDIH

[8] = Stability of the compound in PBS at 25 degC after 2 mins to 24 hrs by HPLC analysis; format: physicochemical; settings: buffer
[9] = target: T2, Histone acetyltransferase p300; experiment: Binding affinity to human recombinant P300 catalytic domain by SPR analysis
[10] = target: T2, Histone acetyltransferase p300; experiment: Inhibition of P300 (unknown origin) using histone H3/[acetyl-3H]-acetyl coenzyme A as substrate
[11] = Cytotoxicity against human U937 cells assessed as cell viability at 10 to 100 uM after 24 hrs by MTT assay; format: cell-based; settings: u-937, 24 h
[12] = target: T1, Histone acetyltransferase KAT2B; experiment: Inhibition of recombinant PCAF (unknown origin)
Target sequence in this assay (Q92831 whole entry, looked up): as the sequence (Q92831 whole entry, looked up) above

[13] = Cell cycle arrest in human U937 cells assessed as accumulation at G0/G1 phase at 100 uM after 72 hrs by propidium iodide staining-based FACS analysis; format: functional; settings: U-937
[14] = Induction of beta-mercaptoethanol adduct formation in PBS after 30 mins to 24 hrs by HPLC analysis
[15] = target: T2, Histone acetyltransferase p300; experiment: Inhibition of recombinant P300 (unknown origin)
[16] = target: T2, Histone acetyltransferase p300; experiment: Noncompetitive inhibition of P300 (unknown origin) using acetyl CoA as substrate after 15 mins by double reciprocal plot analysis
[17] = target: T2, Histone acetyltransferase p300; experiment: Inhibition of P300 in human U937 cells assessed as reduction in H3K9 histone acetylation at 100 uM by immunoblotting analysis; format: cell-based; settings: U-937, TDE = time-dependent effect
[18] = target: T2, Histone acetyltransferase p300; experiment: Inhibition of P300 in human U937 cells assessed as reduction in H4K5 histone acetylation at 100 uM by immunoblotting analysis; format: cell-based; settings: U-937, TDE = time-dependent effect
[19] = target: T2, Histone acetyltransferase p300; experiment: Reversible inhibition of P300 (unknown origin)
[20] = Cell cycle arrest in human U937 cells assessed as increase in hypodiploid nuclei level at 100 uM after 72 hrs by Nicoletti method; format: functional, cell-based; settings: U-937
[21] = target: Histone acetyltransferase KAT2A (Homo sapiens) (UniProt Q92830); experiment: Inhibition of recombinant GCN5 (unknown origin)
Chain of Histone acetyltransferase KAT2A (Homo sapiens) (Q92830 2-837 limits assumed): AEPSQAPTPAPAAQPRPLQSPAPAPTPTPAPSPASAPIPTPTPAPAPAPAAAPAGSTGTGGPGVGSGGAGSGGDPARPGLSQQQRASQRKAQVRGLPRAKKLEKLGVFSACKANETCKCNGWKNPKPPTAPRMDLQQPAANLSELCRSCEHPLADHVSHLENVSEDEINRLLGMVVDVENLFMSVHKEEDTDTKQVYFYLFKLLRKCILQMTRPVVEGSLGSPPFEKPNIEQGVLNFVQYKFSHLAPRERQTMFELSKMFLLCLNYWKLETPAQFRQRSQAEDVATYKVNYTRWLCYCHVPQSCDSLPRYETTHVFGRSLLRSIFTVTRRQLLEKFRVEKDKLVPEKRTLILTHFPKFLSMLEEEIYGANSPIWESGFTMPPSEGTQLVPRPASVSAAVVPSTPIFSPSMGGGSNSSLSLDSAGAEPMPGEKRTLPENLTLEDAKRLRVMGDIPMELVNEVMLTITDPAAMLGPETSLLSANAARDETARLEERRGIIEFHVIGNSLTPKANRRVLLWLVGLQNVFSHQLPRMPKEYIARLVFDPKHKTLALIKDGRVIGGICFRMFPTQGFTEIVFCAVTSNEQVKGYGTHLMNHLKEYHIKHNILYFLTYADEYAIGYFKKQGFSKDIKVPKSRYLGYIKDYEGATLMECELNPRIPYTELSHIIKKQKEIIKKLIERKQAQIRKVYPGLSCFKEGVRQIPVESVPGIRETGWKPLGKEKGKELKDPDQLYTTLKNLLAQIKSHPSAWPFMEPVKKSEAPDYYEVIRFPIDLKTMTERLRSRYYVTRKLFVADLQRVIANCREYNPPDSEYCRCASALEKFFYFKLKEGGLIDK

CREB-binding protein = CREB-binding protein (Homo sapiens, UniProt Q92793); experiment: Inhibition of recombinant CBP (unknown origin)
[22] = target: T2, Histone acetyltransferase p300; experiment: Noncompetitive inhibition of P300 (unknown origin) using biotinylated H3 as substrate after 15 mins by double reciprocal plot analysis
[23] = Stability of the compound in aqueous medium assessed as hydrolysis after 30 mins by HPLC analysis; format: physicochemical; settings: buffer, 0.5 h
[24] = target: T2, Histone acetyltransferase p300; settings: 10 uM
Description: Inhibition of P300 (unknown origin) using histone H3/[acetyl-3H]-acetyl coenzyme A as substrate at 10 uM

[25] = target: T2, Histone acetyltransferase p300; experiment: Inhibition of P300 in […] at 30 uM up to 40 mins by Histac FRET analysis; format: cell-based; settings: COS-7

SMILES	Stability [1]	Stability [2]	inhibition [5]	inhibition [7]	also measured
O=C1C(=Cc2ccccc2)C(=O)N(Cc2ccccc2)C(=O)N1Cc1ccccc1	Unstable	Stable	–	–	–
CC(C)NCC(O)COc1cccc2ccccc12 (stereo not given) [PROPRANOLOL]	–	–	–	–	Papp at 24 h [3]: 4.1 ×10⁻⁶ cm/s
CCCCCCCCCCCCCCCc1cccc(O)c1C(=O)O [ANACARDIC ACID]	–	–	3.6%	–	inhibition [4]: < 10%; IC50 [6]: 33.9 µM
COc1ccc(C=C2C(=O)N(CC(C)C)C(=O)N(CC(C)C)C2=O)cc1OC	Unstable	Stable	9.2%	45.8%	–
O=C(c1ccccc1)C1C(=O)N(Cc2ccccc2)C(=O)N(Cc2ccccc2)C1=O	–	–	–	84.8%	Stability [8]: Stable; Kd [9]: 2.4 µM
COc1ccc(C=C2C(=O)N(CC(C)C)C(=O)N(CC(C)C)C2=O)cc1O	Unstable	Stable	10.6%	84.7%	IC50 [10]: 31.4 µM
Cc1cc(O)cc(C)c1C=C1C(=O)N(Cc2ccccc2)C(=O)N(Cc2ccccc2)C1=O	–	–	–	–	Activity [11]: Non-toxic; inhibition [12]: inactive; Papp at 24 h [3]: 1.9 ×10⁻⁶ cm/s; Activity [13]: Active; Activity [14]: inactive; IC50 [15]: 2.9 µM; Stability [8]: Stable; Ki [16]: 2 µM; alphaKi [16]: 5.7 µM; inhibition [17]: tde; inhibition [18]: tde; inhibition [19]: Active; Activity [20]: Active; inhibition [21]: inactive; IC50 (CREB-binding protein): 1.1 µM; Ki [22]: 9.4 µM; alphaKi [22]: 6.8 µM
COc1ccc(C=C2C(=O)N(Cc3ccccc3)C(=O)N(Cc3ccccc3)C2=O)cc1	Unstable	Stable	-8.2%	93.6%	IC50 [10]: 8 µM
C=CCN1C(=O)C(=Cc2ccc(O)c(O)c2)C(=O)N(CC=C)C1=O	Unstable	Stable	3.3%	61.6%	–
COc1ccc(C=C2C(=O)N(Cc3ccccc3)C(=O)N(Cc3ccccc3)C2=O)cc1OC	Unstable	Stable	–	88.2%	IC50 [10]: 11.4 µM
O=C1C(Cc2ccccc2)C(=O)N(Cc2ccccc2)C(=O)N1Cc1ccccc1	–	–	–	83.9%	Stability [8]: Stable; Kd [9]: 0.11 µM
O=C1C(Cc2ccc(O)c(O)c2)C(=O)N(Cc2ccccc2)C(=O)N1Cc1ccccc1	–	–	–	59.9%	–
C=CCN1C(=O)C(=Cc2ccc(O)c(OC)c2)C(=O)N(CC=C)C1=O	Unstable	Stable	5.1%	67.3%	IC50 [10]: 26.4 µM
C=CCN1C(=O)C(=Cc2ccc(OC)c(O)c2)C(=O)N(CC=C)C1=O	Unstable	Stable	3%	49.5%	–
COc1cc(C=C2C(=O)N(Cc3ccccc3)C(=O)N(Cc3ccccc3)C2=O)ccc1O	Unstable	Stable	–	97.1%	IC50 [10]: 1.5 µM; Stability [23]: Unstable
C=CCN1C(=O)C(Cc2ccc(O)cc2)C(=O)N(CC=C)C1=O	–	–	-7.5%	23.7%	–
O=C(c1ccc(O)c(O)c1)C1C(=O)N(Cc2ccccc2)C(=O)N(Cc2ccccc2)C1=O	–	–	–	48.2%	–
CC(C)CN1C(=O)C(Cc2ccccc2)C(=O)N(CC(C)C)C1=O	–	–	–	23.1%	–
CC(C)CN1C(=O)C(C(=O)c2ccc(O)cc2)C(=O)N(CC(C)C)C1=O	–	–	19.3%	39.7%	–
CC1=NN(c2ccc(C(=O)O)cc2)C(=O)/C1=C\Cc1ccc(Cc2cc(C)c(C)cc2[N+](=O)[O-])o1	–	–	–	–	inhibition [24]: 86%; IC50 [10]: 1.6 µM
C=CCN1C(=O)C(=Cc2ccc(OC)c(OC)c2)C(=O)N(CC=C)C1=O	Unstable	Stable	6.6%	31.1%	–
CC(C)CN1C(=O)C(Cc2ccc(O)cc2)C(=O)N(CC(C)C)C1=O	–	–	5%	64.6%	–

SMILES	Stability [1]	Stability [2]	inhibition [5]	inhibition [7]	also measured
CC(C)CN1C(=O)C(=Cc2ccc(O)cc2)C(=O)N(CC(C)C)C1=O	Unstable	Stable	–	94%	IC50 [10]: 8.5 µM
C=CCN1C(=O)C(Cc2ccccc2)C(=O)N(CC=C)C1=O	–	–	–	28.9%	–
COc1ccc(C=C2C(=O)N(CC(C)C)C(=O)N(CC(C)C)C2=O)cc1	Unstable	Stable	3.6%	53.8%	–
CC(C)CN1C(=O)C(Cc2ccc(O)c(O)c2)C(=O)N(CC(C)C)C1=O	–	–	–	24.3%	–
CC(C)CN1C(=O)C(C(=O)c2ccccc2)C(=O)N(CC(C)C)C1=O	–	–	–	34.1%	–
C=CCN1C(=O)C(Cc2ccc(O)c(O)c2)C(=O)N(CC=C)C1=O	–	–	–	1.1%	–
O=C1C(=Cc2ccc(O)c(O)c2)C(=O)N(Cc2ccccc2)C(=O)N1Cc1ccccc1	Unstable	Stable	-2.3%	96.2%	IC50 [10]: 1.6 µM; Stability [23]: Unstable
O=C(c1ccc(O)cc1)C1C(=O)N(Cc2ccccc2)C(=O)N(Cc2ccccc2)C1=O	–	–	–	54.4%	–
C=CCN1C(=O)C(C(=O)c2ccc(O)c(O)c2)C(=O)N(CC=C)C1=O	–	–	3.6%	4.9%	–
C=CCN1C(=O)C(C(=O)c2ccccc2)C(=O)N(CC=C)C1=O	–	–	–	28.1%	–
C=CCN1C(=O)C(=Cc2ccc(OC)cc2)C(=O)N(CC=C)C1=O	Unstable	Stable	11.7%	59.9%	–
C=CCN1C(=O)C(C(=O)c2ccc(O)cc2)C(=O)N(CC=C)C1=O	–	–	-2.7%	19.1%	–
COc1cc(C=C2C(=O)N(CC(C)C)C(=O)N(CC(C)C)C2=O)ccc1O	Unstable	Stable	9.3%	96.4%	IC50 [10]: 4.2 µM
C=CCN1C(=O)C(=Cc2ccc(O)cc2)C(=O)N(CC=C)C1=O	Unstable	Stable	3.1%	64.7%	–
CC(C)CN1C(=O)C(=Cc2ccc(O)c(O)c2)C(=O)N(CC(C)C)C1=O	Unstable	Stable	–	91.8%	IC50 [10]: 5.4 µM
O=C1C(Cc2ccc(O)cc2)C(=O)N(Cc2ccccc2)C(=O)N1Cc1ccccc1	–	–	–	60.3%	–
CC(C)CN1C(=O)C(=Cc2ccccc2)C(=O)N(CC(C)C)C1=O	Unstable	Stable	–	–	–
COc1ccc(C=C2C(=O)N(Cc3ccccc3)C(=O)N(Cc3ccccc3)C2=O)cc1O	Unstable	Stable	–	97.3%	IC50 [10]: 5.9 µM; Stability [23]: Unstable
C=CCN1C(=O)C(=Cc2ccccc2)C(=O)N(CC=C)C1=O	Unstable	Stable	–	–	–
CC(C)CN1C(=O)C(C(=O)c2ccc(O)c(O)c2)C(=O)N(CC(C)C)C1=O	–	–	3.4%	8.4%	–
O=C1C(=Cc2ccc(O)cc2)C(=O)N(Cc2ccccc2)C(=O)N1Cc1ccccc1	Unstable	Stable	-0.6%	99.2%	IC50 [10]: 2.1 µM; Stability [23]: Unstable; inhibition [25]: Active
